Assay results published in the supplement of paper PMC8671470.

The compounds below were run on BV-173. Conditions: 72 h.
In short: (§1)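 The IC50 was derived from log-logistic dose–response fitting. Each of fifteen myeloid leukaemia cell lines, seeded in RPMI 1640 within its linear growth range, was exposed in 384-well plates to five tenfold doses (1 to 10,000 nM) in duplicate for 72 h at 37 °C and 5% CO2. Luminescent ATP viability readings were normalised to vehicle and to a positive control at 10 µM before four-parameter curve fitting.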
With `Nc1ccn([C@@H]2O[C@H](CO)[C@@H](O)C2(F)F)c(=O)n1` [Gemcitabine] the “IC50 (cell viability)” value was 0.00213 µM.
`N[C@@H](CCC(=O)N[C@@H](CS)C(=O)NCC(=O)O)C(=O)O` [Glutathione] was tested, and the “IC50 (cell viability)” value was over 10 µM.
In the case of `Clc1cc(Cl)c(OCC#CI)cc1Cl` [Haloprogin], the “IC50 (cell viability)” value is reported as 1.58 µM.
`O=c1[nH]c(=O)n([C@H]2C[C@H](O)[C@@H](CO)O2)cc1I` [Idoxuridine] was tested, and the “IC50 (cell viability)” value was 0.464 µM.
In the case of `CC1Cc2ccccc2N1NC(=O)c1ccc(Cl)c(S(N)(=O)=O)c1` (centres undefined) [Indapamide], the “IC50 (cell viability)” value is reported as over 10 µM.
With `NS(=O)(=O)c1ccc(S(=O)(=O)Nc2cccc3c(Cl)c[nH]c23)cc1` [Indisulam] the “IC50 (cell viability)” value was 0.856 µM.
With `COc1ccc2c(c1)c(CC(=O)O)c(C)n2C(=O)c1ccc(Cl)cc1` [Indomethacine] the “IC50 (cell viability)” value was over 10 µM.
`Cn1cc(C[C@@H](N)C(=O)O)c2ccccc21` [Indoximod] was tested, and the “IC50 (cell viability)” value was over 10 µM.

Each compound was assayed on Mono-Mac-6. Conditions: 72 h.
In short: as §1
`OC[C@H]1N[C@@H](c2c[nH]c3c(O)ncnc23)[C@H](O)[C@@H]1O` [Forodesine] was tested, and the “IC50 (cell viability)” value was over 10 µM.
With `O=c1oc2c(cc1O)oc(=O)c1cc(O)c(O)c(O)c12` [Galloflavin] the “IC50 (cell viability)” value was over 10 µM.
`Nc1ccn([C@@H]2O[C@H](CO)[C@@H](O)C2(F)F)c(=O)n1` [Gemcitabine] was tested, and the “IC50 (cell viability)” value was 0.00301 µM.
In the case of `N[C@@H](CCC(=O)N[C@@H](CS)C(=O)NCC(=O)O)C(=O)O` [Glutathione], the “IC50 (cell viability)” value is reported as over 10 µM.
`Clc1cc(Cl)c(OCC#CI)cc1Cl` [Haloprogin] was tested, and the “IC50 (cell viability)” value was 2.84 µM.
For `O=c1[nH]c(=O)n([C@H]2C[C@H](O)[C@@H](CO)O2)cc1I` [Idoxuridine], the “IC50 (cell viability)” value was 6.63 µM.
For `CC1Cc2ccccc2N1NC(=O)c1ccc(Cl)c(S(N)(=O)=O)c1` (centres undefined) [Indapamide], the “IC50 (cell viability)” value was over 10 µM.
In the case of `NS(=O)(=O)c1ccc(S(=O)(=O)Nc2cccc3c(Cl)c[nH]c23)cc1` [Indisulam], the “IC50 (cell viability)” value is reported as 0.796 µM.
In the case of `COc1ccc2c(c1)c(CC(=O)O)c(C)n2C(=O)c1ccc(Cl)cc1` [Indomethacine], the “IC50 (cell viability)” value is reported as over 10 µM.
With `Cn1cc(C[C@@H](N)C(=O)O)c2ccccc21` [Indoximod] the “IC50 (cell viability)” value was over 10 µM.

The compounds below were run on KCL-22. Conditions: 72 h.
In short: as §1
For `OC[C@H]1N[C@@H](c2c[nH]c3c(O)ncnc23)[C@H](O)[C@@H]1O` [Forodesine], the “IC50 (cell viability)” value was over 10 µM.
In the case of `O=c1oc2c(cc1O)oc(=O)c1cc(O)c(O)c(O)c12` [Galloflavin], the “IC50 (cell viability)” value is reported as over 10 µM.
For `Nc1ccn([C@@H]2O[C@H](CO)[C@@H](O)C2(F)F)c(=O)n1` [Gemcitabine], the “IC50 (cell viability)” value was 0.00687 µM.
In the case of `N[C@@H](CCC(=O)N[C@@H](CS)C(=O)NCC(=O)O)C(=O)O` [Glutathione], the “IC50 (cell viability)” value is reported as over 10 µM.
In the case of `Clc1cc(Cl)c(OCC#CI)cc1Cl` [Haloprogin], the “IC50 (cell viability)” value is reported as 1.71 µM.
For `O=c1[nH]c(=O)n([C@H]2C[C@H](O)[C@@H](CO)O2)cc1I` [Idoxuridine], the “IC50 (cell viability)” value was 0.755 µM.
With `CC1Cc2ccccc2N1NC(=O)c1ccc(Cl)c(S(N)(=O)=O)c1` (centres undefined) [Indapamide] the “IC50 (cell viability)” value was over 10 µM.
With `NS(=O)(=O)c1ccc(S(=O)(=O)Nc2cccc3c(Cl)c[nH]c23)cc1` [Indisulam] the “IC50 (cell viability)” value was 1.08 µM.
In the case of `COc1ccc2c(c1)c(CC(=O)O)c(C)n2C(=O)c1ccc(Cl)cc1` [Indomethacine], the “IC50 (cell viability)” value is reported as over 10 µM.
In the case of `Cn1cc(C[C@@H](N)C(=O)O)c2ccccc21` [Indoximod], the “IC50 (cell viability)” value is reported as over 10 µM.

Each compound was assayed on MOLM-13. Conditions: 72 h.
In short: as §1
With `OC[C@H]1N[C@@H](c2c[nH]c3c(O)ncnc23)[C@H](O)[C@@H]1O` [Forodesine] the “IC50 (cell viability)” value was over 10 µM.
With `O=c1oc2c(cc1O)oc(=O)c1cc(O)c(O)c(O)c12` [Galloflavin] the “IC50 (cell viability)” value was over 10 µM.
For `Nc1ccn([C@@H]2O[C@H](CO)[C@@H](O)C2(F)F)c(=O)n1` [Gemcitabine], the “IC50 (cell viability)” value was 0.00311 µM.
`N[C@@H](CCC(=O)N[C@@H](CS)C(=O)NCC(=O)O)C(=O)O` [Glutathione] was tested, and the “IC50 (cell viability)” value was over 10 µM.
In the case of `Clc1cc(Cl)c(OCC#CI)cc1Cl` [Haloprogin], the “IC50 (cell viability)” value is reported as 3.95 µM.
For `O=c1[nH]c(=O)n([C@H]2C[C@H](O)[C@@H](CO)O2)cc1I` [Idoxuridine], the “IC50 (cell viability)” value was 4.76 µM.
With `CC1Cc2ccccc2N1NC(=O)c1ccc(Cl)c(S(N)(=O)=O)c1` (centres undefined) [Indapamide] the “IC50 (cell viability)” value was over 10 µM.
For `NS(=O)(=O)c1ccc(S(=O)(=O)Nc2cccc3c(Cl)c[nH]c23)cc1` [Indisulam], the “IC50 (cell viability)” value was 0.619 µM.
For `COc1ccc2c(c1)c(CC(=O)O)c(C)n2C(=O)c1ccc(Cl)cc1` [Indomethacine], the “IC50 (cell viability)” value was over 10 µM.
In the case of `Cn1cc(C[C@@H](N)C(=O)O)c2ccccc21` [Indoximod], the “IC50 (cell viability)” value is reported as over 10 µM.

These compounds were tested on MV4-11. Conditions: 72 h.
In short: as §1
`OC[C@H]1N[C@@H](c2c[nH]c3c(O)ncnc23)[C@H](O)[C@@H]1O` [Forodesine] was tested, and the “IC50 (cell viability)” value was over 10 µM.
With `O=c1oc2c(cc1O)oc(=O)c1cc(O)c(O)c(O)c12` [Galloflavin] the “IC50 (cell viability)” value was over 10 µM.
For `Nc1ccn([C@@H]2O[C@H](CO)[C@@H](O)C2(F)F)c(=O)n1` [Gemcitabine], the “IC50 (cell viability)” value was 0.00188 µM.
`N[C@@H](CCC(=O)N[C@@H](CS)C(=O)NCC(=O)O)C(=O)O` [Glutathione] was tested, and the “IC50 (cell viability)” value was over 10 µM.
For `Clc1cc(Cl)c(OCC#CI)cc1Cl` [Haloprogin], the “IC50 (cell viability)” value was 2.52 µM.
In the case of `O=c1[nH]c(=O)n([C@H]2C[C@H](O)[C@@H](CO)O2)cc1I` [Idoxuridine], the “IC50 (cell viability)” value is reported as 1.63 µM.
For `CC1Cc2ccccc2N1NC(=O)c1ccc(Cl)c(S(N)(=O)=O)c1` (centres undefined) [Indapamide], the “IC50 (cell viability)” value was over 10 µM.
With `NS(=O)(=O)c1ccc(S(=O)(=O)Nc2cccc3c(Cl)c[nH]c23)cc1` [Indisulam] the “IC50 (cell viability)” value was 0.128 µM.
With `COc1ccc2c(c1)c(CC(=O)O)c(C)n2C(=O)c1ccc(Cl)cc1` [Indomethacine] the “IC50 (cell viability)” value was over 10 µM.
`Cn1cc(C[C@@H](N)C(=O)O)c2ccccc21` [Indoximod] was tested, and the “IC50 (cell viability)” value was over 10 µM.

These compounds were tested on NOMO-1. Conditions: 72 h.
In short: as §1
For `OC[C@H]1N[C@@H](c2c[nH]c3c(O)ncnc23)[C@H](O)[C@@H]1O` [Forodesine], the “IC50 (cell viability)” value was over 10 µM.
In the case of `O=c1oc2c(cc1O)oc(=O)c1cc(O)c(O)c(O)c12` [Galloflavin], the “IC50 (cell viability)” value is reported as over 10 µM.
In the case of `Nc1ccn([C@@H]2O[C@H](CO)[C@@H](O)C2(F)F)c(=O)n1` [Gemcitabine], the “IC50 (cell viability)” value is reported as 0.0057 µM.
With `N[C@@H](CCC(=O)N[C@@H](CS)C(=O)NCC(=O)O)C(=O)O` [Glutathione] the “IC50 (cell viability)” value was over 10 µM.
`Clc1cc(Cl)c(OCC#CI)cc1Cl` [Haloprogin] was tested, and the “IC50 (cell viability)” value was 3.09 µM.
`O=c1[nH]c(=O)n([C@H]2C[C@H](O)[C@@H](CO)O2)cc1I` [Idoxuridine] was tested, and the “IC50 (cell viability)” value was over 10 µM.
In the case of `CC1Cc2ccccc2N1NC(=O)c1ccc(Cl)c(S(N)(=O)=O)c1` (centres undefined) [Indapamide], the “IC50 (cell viability)” value is reported as over 10 µM.
With `NS(=O)(=O)c1ccc(S(=O)(=O)Nc2cccc3c(Cl)c[nH]c23)cc1` [Indisulam] the “IC50 (cell viability)” value was 1.09 µM.
With `COc1ccc2c(c1)c(CC(=O)O)c(C)n2C(=O)c1ccc(Cl)cc1` [Indomethacine] the “IC50 (cell viability)” value was over 10 µM.
In the case of `Cn1cc(C[C@@H](N)C(=O)O)c2ccccc21` [Indoximod], the “IC50 (cell viability)” value is reported as over 10 µM.

What follows are compounds tested on K-562. Conditions: 72 h.
In short: as §1
For `OC[C@H]1N[C@@H](c2c[nH]c3c(O)ncnc23)[C@H](O)[C@@H]1O` [Forodesine], the “IC50 (cell viability)” value was over 10 µM.
